Data as given in patent publication US9748593B2, “Polymer electrolyte composition, and polymer electrolyte membrane, membrane electrode complex and solid polymer-type fuel cell each produced using same” (TORAY INDUSTRIES, INC., priority 2012, dated 2017).
≈ marks a conversion by molar mass, not a printed value.

Experiment: physchem
Conditions: 60 °C, thermodynamic from solid
Protocol: • (6) Solubility of Nitrogen-Containing Additive
After 100 mg of the nitrogen-containing additive and 1 L of a solvent were mixed, the resulting mixture was stirred at a rotational speed of 200 rpm at 60° C. for 1 hour using a mixing machine to dissolve the nitrogen-containing additive.

Row | SMILES | solubility at 1 h (aqueous buffer) | solubility at 1 h (water)
1 | c1ccc2c(-c3ccc4ccc5ccc(-c6ccc(-c7ccc8ccc9ccc(-c%10cccc%11ccccc%10%11)nc9c8n7)cc6)nc5c4n3)cccc2c1 [ADT-4] | 1.9 µg/mL (≈ 2.77 µM) | < 0.1 µg/mL
2 | c1ccc(-c2ccc3ccc4ccc(-c5cccc(-c6ccc7ccc8ccc(-c9ccccc9)nc8c7n6)c5)nc4c3n2)cc1 [ADT-2] | 3.4 µg/mL (≈ 5.8 µM) | < 0.1 µg/mL
3 | O=S(=O)(O)c1ccc(-c2ccc3ccc4ccc(-c5cccc(-c6ccc7ccc8ccc(-c9ccc(S(=O)(=O)O)cc9)nc8c7n6)c5)nc4c3n2)cc1 [ADT-21] | 6.3 µg/mL (≈ 8.44 µM) | < 0.1 µg/mL
4 | c1ccc(-c2ccc3ccc4ccc(-c5ccc(-c6ccc7ccc8ccc(-c9ccccc9)nc8c7n6)cc5)nc4c3n2)cc1 [ADT-15] | 2.5 µg/mL (≈ 4.26 µM) | < 0.1 µg/mL
5 | c1cnc2c(c1)ccc1cccnc12 [1,10-phenanthroline, reference compound] | ≥ 100 µg/mL | ≥ 100 µg/mL
6 | Cc1cc(C)cc(-c2ccc3ccc4ccc(-c5cccc(-c6ccc7ccc8ccc(-c9cc(C)cc(C)c9)nc8c7n6)c5)nc4c3n2)c1 [ADT-12] | 3.1 µg/mL (≈ 4.82 µM) | < 0.1 µg/mL
7 | Nc1ccc(-c2ccc3ccc4ccc(-c5cccc(-c6ccc7ccc8ccc(-c9ccc(N)cc9)nc8c7n6)c5)nc4c3n2)cc1 [ADT-20] | 7.5 µg/mL (≈ 12.2 µM) | < 0.1 µg/mL
8 | Nc1cc2cccnc2c2ncccc12 [5-amino-1,10-phenanthroline, reference compound] | ≥ 100 µg/mL | ≥ 100 µg/mL
9 | Cc1ccc(-c2ccc3ccc4ccc(-c5cccc(-c6ccc7ccc8ccc(-c9ccc(C)cc9)nc8c7n6)c5)nc4c3n2)cc1 [ADT-13] | 3.2 µg/mL (≈ 5.21 µM) | < 0.1 µg/mL
10 | CC(C)(C)c1ccc(-c2ccc3ccc4ccc(-c5cccc(-c6ccc7ccc8ccc(-c9ccc(C(C)(C)C)cc9)nc8c7n6)c5)nc4c3n2)cc1 [ADT-11] | 2.9 µg/mL (≈ 4.15 µM) | < 0.1 µg/mL
11 | c1cc(-c2ccc3ccc4ccc(-c5cccc6ccccc56)nc4c3n2)cc(-c2ccc3ccc4ccc(-c5cccc6ccccc56)nc4c3n2)c1 [ADT-14] | 2.8 µg/mL (≈ 4.08 µM) | < 0.1 µg/mL
12 | c1ccc(-c2ccc3ccc4ccc(-c5ccc6ccc(-c7ccc8ccc9ccc(-c%10ccccc%10)nc9c8n7)cc6c5)nc4c3n2)cc1 [ADT-6] | 2.6 µg/mL (≈ 4.08 µM) | < 0.1 µg/mL
13 | c1cnc2c(c1)ccc1ccc(-c3ccc(C(c4ccc(-c5ccc6ccc7cccnc7c6n5)cc4)(c4ccc(-c5ccc6ccc7cccnc7c6n5)cc4)c4ccc(-c5ccc6ccc7cccnc7c6n5)cc4)cc3)nc12 [ADT-19] | < 0.1 µg/mL | < 0.1 µg/mL
14 | CC(C)(C)c1ccc(-c2ccc3ccc4ccc(-c5ccc(-c6ccc7ccc8ccc(-c9ccc(C(C)(C)C)cc9)nc8c7n6)cc5)nc4c3n2)cc1 [ADT-16] | 2.8 µg/mL (≈ 4.01 µM) | < 0.1 µg/mL

Next, values leading:

Row | solubility at 1 h (aqueous buffer) | solubility at 1 h (water) | SMILES
15 | 3.3 µg/mL (≈ 5.62 µM) | < 0.1 µg/mL | c1ccc(-c2ccc(-c3ccc4ccc5cccnc5c4n3)cc2)c(-c2ccc(-c3ccc4ccc5cccnc5c4n3)cc2)c1 [ADT-8]
16 | 3 µg/mL (≈ 5.11 µM) | < 0.1 µg/mL | c1cc(-c2ccc(-c3ccc4ccc5cccnc5c4n3)cc2)cc(-c2ccc(-c3ccc4ccc5cccnc5c4n3)cc2)c1 [ADT-9]
17 | 1.3 µg/mL (≈ 2.12 µM) | < 0.1 µg/mL | c1cnc2c(c1)ccc1ccc(-c3cc(-c4ccc5ccc6cccnc6c5n4)cc(-c4ccc5ccc6cccnc6c5n4)c3)nc12 [ADT-18]
18 | 3.6 µg/mL (≈ 6.14 µM) | < 0.1 µg/mL | c1cc(-c2cccc(-c3ccc4ccc5cccnc5c4n3)c2)cc(-c2cccc(-c3ccc4ccc5cccnc5c4n3)c2)c1 [ADT-10]
19 | 4 µg/mL (≈ 8.25 µM) | < 0.1 µg/mL | c1cnc2c(c1)ccc1ccc(-c3ccc4ccc(-c5ccc6ccc7cccnc7c6n5)cc4c3)nc12 [ADT-5]
20 | 5 µg/mL (≈ 11.5 µM) | < 0.1 µg/mL | c1cc(-c2ccc3ccc4cccnc4c3n2)cc(-c2ccc3ccc4cccnc4c3n2)c1 [ADT-1]
21 | 4.5 µg/mL (≈ 9.29 µM) | < 0.1 µg/mL | c1cnc2c(c1)ccc1ccc(-c3cccc4c(-c5ccc6ccc7cccnc7c6n5)cccc34)nc12 [ADT-7]
22 | 4.6 µg/mL (≈ 9.01 µM) | < 0.1 µg/mL | c1cc(-c2cccc(-c3ccc4ccc5cccnc5c4n3)c2)cc(-c2ccc3ccc4cccnc4c3n2)c1 [ADT-17]
23 | 4.2 µg/mL (≈ 9.67 µM) | < 0.1 µg/mL | c1cnc2c(c1)ccc1ccc(-c3ccc(-c4ccc5ccc6cccnc6c5n4)cc3)nc12 [ADT-3]
